Test [1] deals with human prostate cancer cell line PC3. The test can be described thus: Cell proliferation inhibitory activity (Cell Counting Kit-8), prostate cancer PC3. In kind it is cell-based. Particulars: 96 h, PC3, 4 days. The essentials:
(§1)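 PC3 (3000 cells/well) or NCI-H460 (1000 cells/well) exposed to compound for 4 days at 37 °C in CO2. CCK-8 absorbance at 450 nm (reference 615 nm); percent proliferation inhibition calculated at 2.5 µM.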
In general terms: Formazan colour is commonly taken as a measure of viable cells.

Another test concerns the target human PI3K(p110α/p85α) (Homo sapiens, UniProt P42336). The test can be described thus: Measurement of PI3K inhibitory activity (AlphaScreen GST Detection Kit). In kind it is biochemical. Particulars: 10 μM ATP, 4 μM PI(4,5)P2, read-out: Enzyme inhibitory activity (IC50, μM) PI3K α. The essentials:
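Baculovirus-expressed human p110α/p85α was preincubated with compound for 20 min at room temperature, then reacted with 4 μM PI(4,5)P2 and 10 μM ATP (pH 7.5, 2.5 mM MgCl2) for 15 min at 37 °C. PIP3 product was detected by AlphaScreen competition of GST-GRP1 with biotin-PI(3,4,5)P3 after 1 h at room temperature.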

In test [2] the test system is human colon cancer cell line HCT116. The test can be described thus: Cell proliferation inhibitory activity (Cell Counting Kit-8), colon cancer HCT116. In kind it is cell-based. As to conditions: HCT-116, 96 h, HCT116, 4 days. The essentials: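 HCT116 cells (2000/well) were exposed to compounds for 4 days at 37 °C under CO2. Viability was then read with CCK-8 as absorbance at 450 nm (reference 615 nm).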

Test [3] deals with human lung cancer cell line NCI-H460. The test can be described thus: Cell proliferation inhibitory activity (Cell Counting Kit-8), lung cancer NCI-H460. In kind it is cell-based. As to conditions: 96 h, NCI-H460, 4 days, read-out: Cell proliferation inhibitory activity (% Inhibition at 2.5 μM) Non-small cell lung cancer (NCI-H460). Put shortly:
as §1

The IC50 is the point on the concentration scale where inhibition reaches its midpoint.

Structures are written as SMILES.

Sequence of human PI3K(p110α/p85α) (P42336 whole entry): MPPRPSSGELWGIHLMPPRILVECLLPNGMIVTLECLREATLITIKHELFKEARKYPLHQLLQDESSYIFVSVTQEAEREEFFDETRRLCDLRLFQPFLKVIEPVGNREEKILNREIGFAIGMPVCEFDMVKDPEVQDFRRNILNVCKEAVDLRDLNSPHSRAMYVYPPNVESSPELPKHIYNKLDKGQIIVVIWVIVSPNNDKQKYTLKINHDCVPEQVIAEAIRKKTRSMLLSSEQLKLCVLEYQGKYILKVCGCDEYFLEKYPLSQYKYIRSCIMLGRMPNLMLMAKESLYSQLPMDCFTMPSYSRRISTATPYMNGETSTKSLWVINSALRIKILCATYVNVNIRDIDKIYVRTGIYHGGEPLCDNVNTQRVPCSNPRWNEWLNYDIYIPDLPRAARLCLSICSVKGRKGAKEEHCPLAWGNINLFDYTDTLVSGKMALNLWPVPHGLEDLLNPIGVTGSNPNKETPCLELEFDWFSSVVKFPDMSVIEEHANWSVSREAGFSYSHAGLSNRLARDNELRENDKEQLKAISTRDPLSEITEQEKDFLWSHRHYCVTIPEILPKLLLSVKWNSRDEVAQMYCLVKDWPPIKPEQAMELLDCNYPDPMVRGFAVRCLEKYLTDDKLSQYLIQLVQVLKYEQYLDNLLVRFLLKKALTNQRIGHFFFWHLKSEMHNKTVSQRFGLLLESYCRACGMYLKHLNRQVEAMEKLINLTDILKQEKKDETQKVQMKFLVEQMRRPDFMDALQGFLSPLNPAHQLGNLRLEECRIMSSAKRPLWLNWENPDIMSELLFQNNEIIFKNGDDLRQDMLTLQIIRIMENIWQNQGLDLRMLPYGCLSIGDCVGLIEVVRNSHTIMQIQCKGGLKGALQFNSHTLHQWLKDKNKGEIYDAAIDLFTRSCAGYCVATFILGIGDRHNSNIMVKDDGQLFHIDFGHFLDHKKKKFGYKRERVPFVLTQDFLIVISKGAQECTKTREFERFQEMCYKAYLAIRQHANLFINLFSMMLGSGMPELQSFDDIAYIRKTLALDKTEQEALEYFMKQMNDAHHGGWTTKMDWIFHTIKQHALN
Sequence of human PI3K(p110α/p85α) (P27986 whole entry partner): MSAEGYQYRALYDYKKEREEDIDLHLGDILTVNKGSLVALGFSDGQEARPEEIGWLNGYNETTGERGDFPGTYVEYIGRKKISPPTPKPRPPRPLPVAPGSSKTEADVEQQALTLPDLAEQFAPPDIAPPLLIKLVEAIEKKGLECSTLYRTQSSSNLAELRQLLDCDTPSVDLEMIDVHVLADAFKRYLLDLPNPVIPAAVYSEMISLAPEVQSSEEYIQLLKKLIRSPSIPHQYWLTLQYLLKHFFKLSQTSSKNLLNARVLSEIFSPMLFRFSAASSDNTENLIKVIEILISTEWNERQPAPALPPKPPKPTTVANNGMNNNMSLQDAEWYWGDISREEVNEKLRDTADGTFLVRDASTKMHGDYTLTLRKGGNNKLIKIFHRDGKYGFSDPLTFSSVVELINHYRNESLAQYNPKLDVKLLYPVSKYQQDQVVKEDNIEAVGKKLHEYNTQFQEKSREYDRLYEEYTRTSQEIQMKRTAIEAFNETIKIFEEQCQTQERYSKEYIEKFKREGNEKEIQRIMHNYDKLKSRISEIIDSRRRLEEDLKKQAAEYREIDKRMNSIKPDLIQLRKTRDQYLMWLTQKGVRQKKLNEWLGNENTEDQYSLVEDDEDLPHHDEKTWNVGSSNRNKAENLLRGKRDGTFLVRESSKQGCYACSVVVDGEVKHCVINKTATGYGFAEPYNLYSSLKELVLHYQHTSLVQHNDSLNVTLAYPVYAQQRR

Take `CN(Cc1cccnc1)C(=O)c1ccc(N2CCc3c(-c4cnc(N)nc4)nc(N4CCOCC4)nc32)c(F)c1` [Example D-318, 4-[4-(2-Amino-pyrimidin-5-yl)-2-morpholin-4-yl-5,6-dihydro-pyrrolo[2,3-d]pyrimidin-7-yl]-3-fluoro-N-methyl-N-pyridin-3-ylmethyl-benzamide]: the inhibition at 2.5 µM turned out to be 94% in test [1], 96% in test [2] and 89% in test [3]. In addition, the IC50 at human PI3K(p110α/p85α) was found to be 0.007 µM.

As for `CN1CCN(Cc2ccc(N3CCc4c(-c5cnc(N)nc5)nc(N5CCOCC5)nc43)cc2F)CC1` [Example D-325, 5-{7-[3-fluoro-4-(4-methyl-piperazin-1-ylmethyl)-phenyl]-2-morpholin-4-yl-6,7-dihydro-5H-pyrrolo[2,3-d]pyrimidin-4-yl}-pyrimidin-2-ylamine], the inhibition at 2.5 µM in test [1] amounted to 73%; in test [2], 78%; in test [3], 81%. In addition, at human PI3K(p110α/p85α), the IC50 came out at 0.11 µM.

With `CN1CCN(Cc2ccc(N3CCc4c(-c5cnc(N)nc5)nc(N5CCOCC5)nc43)c(F)c2)CC1` [Example D-326, 5-{7-[2-fluoro-4-(4-methyl-piperazin-1-ylmethyl)-phenyl]-2-morpholin-4-yl-6,7-dihydro-5H-pyrrolo[2,3-d]pyrimidin-4-yl}-pyrimidin-2-ylamine], the results for the inhibition at 2.5 µM in test [1], in test [2] and in test [3] were 81%, 72% and 83%, respectively. Further, the IC50 at human PI3K(p110α/p85α) was 0.24 µM.

For `CCCN1CCN(Cc2ccc(N3CCc4c(-c5cnc(N)nc5)nc(N5CCOCC5)nc43)cc2)CC1` [Example D-327, 5-{2-morpholin-4-yl-7-[4-(4-propyl-piperazin-1-ylmethyl)-phenyl]-6,7-dihydro-5H-pyrrolo[2,3-d]pyrimidin-4-yl}-pyrimidin-2-ylamine], the inhibition at 2.5 µM in test [1] amounted to 79%; in test [2], 78%; in test [3], 85%. Besides, the IC50 on human PI3K(p110α/p85α) was found to be 0.07 µM.

For `CC(C)N1CCN(Cc2ccc(N3CCc4c(-c5cnc(N)nc5)nc(N5CCOCC5)nc43)cc2)CC1` [Example D-328, 5-{7-[4-(4-isopropyl-piperazin-1-ylmethyl)-phenyl]-2-morpholin-4-yl-6,7-dihydro-5H-pyrrolo[2,3-d]pyrimidin-4-yl}-pyrimidin-2-ylamine], the values for the inhibition at 2.5 µM in test [1], in test [2] and in test [3] were 84%, 84% and 91%, respectively. Moreover, the IC50 on human PI3K(p110α/p85α) turned out to be 0.06 µM.

In the case of `Nc1ncc(-c2nc(N3CCOCC3)nc3c2CCN3c2ccc(CN3CCN(CCF)CC3)cc2)cn1` [Example D-329, 5-(7-{4-[4-(2-fluoroethyl)-piperazin-1-ylmethyl]-phenyl}-2-morpholin-4-yl-6,7-dihydro-5H-pyrrolo[2,3-d]pyrimidin-4-yl)-pyrimidin-2-ylamine], the inhibition at 2.5 µM turned out to be 65% in test [1], 73% in test [2] and 81% in test [3]. Further, the IC50 at human PI3K(p110α/p85α) came to 0.26 µM.

For `Nc1ncc(-c2nc(N3CCOCC3)nc3c2CCN3c2ccc(CN3CCN(CCC(F)(F)F)CC3)cc2)cn1` [Example D-332, 5-(2-morpholin-4-yl-7-{4-[4-(3,3,3-trifluoropropyl)piperazin-1-ylmethyl]-phenyl}-6,7-dihydro-5H-pyrrolo[2,3-d]pyrimidin-4-yl}-pyrimidin-2-ylamine], the inhibition at 2.5 µM is 43% in test [1], 60% in test [2] and 54% in test [3]. The IC50 on human PI3K(p110α/p85α) was 0.21 µM.

Consider `CN1CCN(Cc2ccc3cc(N4CCc5c(-c6cnc(N)nc6)nc(N6CCOCC6)nc54)ccc3c2)CC1` [Example D-333, 5-{7-[6-(4-methyl-piperazin-1-ylmethyl)naphthalen-2-yl]-2-morpholin-4-yl-6,7-dihydro-5H-pyrrolo[2,3-d]pyrimidin-4-yl}-pyrimidin-2-ylamine], for which the inhibition at 2.5 µM was 43% in test [1], 99% in test [2] and 102% in test [3]. Further, the IC50 on human PI3K(p110α/p85α) stood at 0.16 µM.

For `Nc1ncc(-c2nc(N3CCOCC3)nc3c2CCN3c2ccc(CNCc3cccnc3)cc2)cn1` [Example D-334], the values for the inhibition at 2.5 µM in test [1], in test [2] and in test [3] were 90%, 93% and 94%, respectively. Further, the IC50 at human PI3K(p110α/p85α) is 0.2 µM.

Regarding `CN(C)CCNC(=O)c1cccc(-c2nc(N3CCOCC3)nc3c2CCN3c2cccnc2)c1` [Example G-05, N-(2-dimethylaminoethyl)-3-(2-morpholin-4-yl-7-pyridin-3-yl-6,7-dihydro-5H-pyrrolo[2,3-d]pyrimidin-4-yl)-benzamide], the inhibition at 2.5 µM in test [1] is 49%; in test [2], 38%; in test [3], 55%. Further, the IC50 on human PI3K(p110α/p85α) came to 0.36 µM.

For the compound `CN(C)CCOC(=O)c1cccc(-c2nc(N3CCOCC3)nc3c2CCN3c2cccnc2)c1` [Example G-27, 3-(2-Morpholin-4-yl-7-pyridin-3-yl-6,7-dihydro-5H-pyrrolo[2,3-d]pyrimidin-4-yl)-benzoic acid 2-dimethylamino-ethyl ester], the inhibition at 2.5 µM in test [1] stood at 48%; in test [2] it was 44%; in test [3] it was 18%. In addition, on human PI3K(p110α/p85α), the IC50 came out at 0.33 µM.

Consider `CN(C)CCCNc1cc(N2CCc3c(-c4cccc(O)c4)nc(N4CCOCC4)nc32)ccn1` [Example H-12, 3-{7-[2-(3-Dimethylamino-propylamino)-pyridin-4-yl]-2-morpholin-4-yl-6,7-dihydro-5H-pyrrolo[2,3-d]pyrimidin-4-yl}-phenol], for which the inhibition at 2.5 µM in test [1] was found to be 76%; in test [2], 82%; in test [3], 71%. Further, on human PI3K(p110α/p85α), the IC50 is 0.02 µM.

As for `CN(C)CCOc1cc(N2CCc3c(-c4cnc(N)nc4)nc(N4CCOCC4)nc32)ccn1` [Example H-32, 5-[7-(2-Dimethylaminoethoxy-pyridin-4-yl)-2-morpholin-4-yl-6,7-dihydro-5H-pyrrolo[2,3-d]pyrimidin-4-yl]-pyrimidin-2-ylamine], the inhibition at 2.5 µM turned out to be 89% in test [1], 82% in test [2] and 86% in test [3]. Also, the IC50 on human PI3K(p110α/p85α) is 0.018 µM.

With `CCN1CCN(c2cc(N3CCc4c(-c5cnc(N)nc5)nc(N5CCOCC5)nc43)ccn2)CC1` [Example H-34, 5-{7-[2-(4-Ethyl-piperazin-1-yl)-pyridin-4-yl]-2-morpholin-4-yl-6,7-dihydro-5H-pyrrolo[2,3-d]pyrimidin-4-yl}-pyrimidin-2-ylamine], the inhibition at 2.5 µM worked out at 91% in test [1], 81% in test [2] and 89% in test [3]. Moreover, the IC50 on human PI3K(p110α/p85α) came out at 0.011 µM.

The values above are taken from patent US8022205B2, “Pyrimidine derivatives as PI3K inhibitor and use thereof” (Chugai Seiyaku Kabushiki Kaisha, priority 2006, dated 2011).
